According to US20220251152A1, “COMPOSITIONS AND METHODS FOR SELECTIVE PROTEIN DEGRADATION” (Novartis AG, priority 2019, published 2022):
“Also recorded” adds a separate entry of the source.

Assays:
Type in all cases: cell-based, human
[1] = system: NanoLuciferase fused to various IKZF3-based degradation tags; experiment: Western blot of variant IKZF3-based degradation tags fused to NanoLuciferase in HEK293T cells; settings: tag fused to N-terminus of NanoLuciferase
Method: Additionally, the IKZF3-based degradation tags were modified using the following strategies:
(1) deleting N-terminal and/or C-terminal amino acid residues;
Protein degradation was measured using western blot as described in Example 2.

[2] = system: IKZF3 degron-tagged melanogenesis associated transcription factor (MITF); experiment: Western blot of IKZF3-tagged MITF in HEK293T cells; settings: for degradation of tagged MITF mediated by IMiD: 10 μM compound for 24 hours, IKZF3 136-180 and 236-249- and lysine free-tagged MITF; for ability of the tag to mediate lenalidomide-dependent degradation of MITF: HEK293T, Western blot
Method: IKZF3-based degradation tags were evaluated for their ability to facilitate the degradation of melanogenesis associated transcription factor (MITF) or avian myelocytomatosis viral oncogene (MYC) homolog by Western blot. In addition to the IKZF3-based degradation tags, MITF and MYC were also fused to a FLAG tag to facilitate their detection using an anti-FLAG antibody.
DMSO was used as vehicle control.

[3] = system: CAR19 fused to HilD tag and/or FurON; experiment: Flow cytometry of surface CAR expression on JNL cells, 10 μM lenalidomide and/or bazedoxifene 24 hours; settings: surface CAR on transduced JNL cells; for % reduction in CAR expression / Effect of lenalidomide: 10 μM lenalidomide, 24 hours; for CAR Expression: flow cytometry, FurON constructs only in presence of bazedoxifene; for Effect of bazedoxifene: with/without bazedoxifene
Source text: Next, the surface expression of CAR19 on stably transduced JNL cells was examined by flow cytometry. […] On Day 2, cells were harvested, stained using biotinylated-protein L (Genscript, M00097) followed by PE conjugated streptavidin (Jackson Lab, 016-110-084), and subjected to flow cytometry analysis using Fortessa instrument.

## IKZF3 140-170 MALEK: tag comprising the amino acid sequence of SEQ ID NO: 87
[1]
  ability of the tag to facilitate lenalidomide-dependent degradation of NanoLuciferase: did not mediate lenalidomide-induced degradation; also recorded: did not mediate lenalidomide induced degradation

## O=C1CCC(N2C(=O)c3ccccc3C2=O)C(=O)N1 (stereo not shown) [thalidomide, 2-(2,6-dioxopiperidin-3-yl)isoindoline-1,3-dione, reference compound]
[2]
  degradation of tagged MITF mediated by IMiD: much less effective

## IKZF3 141-163 MALEK: tag comprising the amino acid sequence of SEQ ID NO: 88 (TGERPFQCNQCGASFTQKGNLLRMALEKMALEKMALE; source: /note="Description of Unknown: IKZF3 sequence")
[1]
  ability of the tag to facilitate lenalidomide-dependent degradation of NanoLuciferase: did not mediate lenalidomide-induced degradation; also recorded: did not mediate lenalidomide induced degradation

## Nc1cccc2c1C(=O)N(C1CCC(=O)NC1=O)C2=O (stereo not shown) [pomalidomide, 4-amino-2-(2,6-dioxopiperidin-3-yl)isoindoline-1,3-dione, reference compound]
[2]
  degradation of tagged MITF mediated by IMiD: effectively facilitated degradation of tagged MITF
[2]; listed as Pomalidomide
  degradation of tagged MITF mediated by IMiD: slightly greater extent than lenalidomide

## IKZF3 136-180 MALEK: residues 236-249 replaced with helix MALEKMALEKMALE, SEQ ID NO: 85
[1]
  ability of the tag to facilitate lenalidomide-dependent degradation of NanoLuciferase: retained the ability to facilitate lenalidomide-dependent degradation; also recorded: facilitated lenalidomide-induced degradation

## IKZF3 136-180 and 236-249 K245R: tag with lysine at position 245 mutated to arginine, SEQ ID NO: 84 (HKRSHTGERPFQCNQCGASFTQKGNLLRHIKLHTGEKPFKCHLCNTASAEARHIRAEMG; source: /note="Description of Unknown: IKZF3 sequence")
[1]
  ability of the tag to facilitate lenalidomide-dependent degradation of NanoLuciferase: facilitated lenalidomide-induced degradation
[1]; listed as SEQ ID NO: 84
  ability of the tag to facilitate lenalidomide-dependent degradation of NanoLuciferase: did not significantly impact the ability of the tag to mediate degradation

## IKZF3 136-170 MALEK: IKZF3 136-170 with helix MALEKMALEKMALE, SEQ ID NO: 86
[1]
  ability of the tag to facilitate lenalidomide-dependent degradation of NanoLuciferase: retained the ability to facilitate lenalidomide-dependent degradation; also recorded: able to mediate lenalidomide-dependent degradation; also recorded: facilitated lenalidomide-induced degradation

## lysine free IKZF3 136-180 and 236-249: variant in which every lysine residue in the tag was mutated to arginine, SEQ ID NO: 4
[2]
  ability of the tag to mediate lenalidomide-dependent degradation of MITF: did not significantly impact the ability of this tag to mediate lenalidomide-dependent degradation of MITF

## IKZF3 136-180 and 236-249 K245S: tag with lysine at position 245 mutated to serine, SEQ ID NO: 100 (HKRSHTGERPFQCNQCGASFTQKGNLLRHIKLHTGEKPFKCHLCNTASAEARHISAEMG; source: /note="Description of Unknown: IKZF3 sequence")
[1]
  ability of the tag to facilitate lenalidomide-dependent degradation of NanoLuciferase: facilitated lenalidomide-induced degradation
[1]; listed as SEQ ID NO: 100
  ability of the tag to facilitate lenalidomide-dependent degradation of NanoLuciferase: did not significantly impact the ability of the tag to mediate degradation

## IKZF3 136-180 Q147H: variant of IKZF3 136-180 with glutamine at position 147 replaced with histidine, SEQ ID NO: 27
[2]
  ability of the tag to mediate lenalidomide-dependent degradation of MITF: blocked the ability of IKZF3 136-180 to mediate the lenalidomide-dependent degradation of MITF; also recorded: did not show degradation

## IKZF3 145-155 MALEK: tag comprising the amino acid sequence of SEQ ID NO: 89 (PFQCNQCGASFMALEKMALEKMALE; source: /note="Description of Unknown: IKZF3 sequence")
[1]
  ability of the tag to facilitate lenalidomide-dependent degradation of NanoLuciferase: did not mediate lenalidomide-induced degradation; also recorded: did not mediate lenalidomide induced degradation

B1: 769 (protein)
chain: MALPVTALLLPLALLLHAARPEIVMTQSPATLSLSPGERATLSCRASQDISKYLNWYQQKPGQAPRLLIYHTSRLHSGIPARFSGSGSGTDYTLTISSLQPEDFAVYFCQQGNTLPYTFGQGTKLEIKGGGGSGGGGSGGGGSQVQLQESGPGLVKPSETLSLTCTVSGVSLPDYGVSWIRQPPGKGLEWIGVIWGSETTYYQSSLKSRVTISKDNSKNQVSLKLSSVTAADTAVYYCAKHYYYGGSYAMDYWGQGTLVTVSSTTTPAPRPPTPAPTIASQPLSLRPEACRPAAGGAVHTRGLDFACDIYIWAPLAGTCGVLLLSLVITLYCKRGRKKLLYIFKQPFMRPVQTTQEEDGCSCRFPEEEEGGCELRVKFSRSADAPAYQQGQNQLYNELNLGRREEYDVLDKRRGRDPEMGGKPRRKNPQEGLYNELQKDKMAEAYSEIGMKGERRRGKGHDGLYQGLSTATKDTYDALHMQALPPRGGGGSGGGGTGGGGSGMHKRSHTGERPFQCNQCGASFTQKGNLLRHIKLHTGEKPFKCHLCNTASAEARHIKAEMG
[3]
  % reduction in CAR expression: 90%
  Effect of lenalidomide: Yes
  CAR Expression: Yes

B2: 768 (protein)
chain: MALPVTALLLPLALLLHAARPEIVMTQSPATLSLSPGERATLSCRASQDISKYLNWYQQKPGQAPRLLIYHTSRLHSGIPARFSGSGSGTDYTLTISSLQPEDFAVYFCQQGNTLPYTFGQGTKLEIKGGGGSGGGGSGGGGSQVQLQESGPGLVKPSETLSLTCTVSGVSLPDYGVSWIRQPPGKGLEWIGVIWGSETTYYQSSLKSRVTISKDNSKNQVSLKLSSVTAADTAVYYCAKHYYYGGSYAMDYWGQGTLVTVSSTTTPAPRPPTPAPTIASQPLSLRPEACRPAAGGAVHTRGLDFACDIYIWAPLAGTCGVLLLSLVITLYCKRGRKKLLYIFKQPFMRPVQTTQEEDGCSCRFPEEEEGGCELRVKFSRSADAPAYQQGQNQLYNELNLGRREEYDVLDKRRGRDPEMGGKPRRKNPQEGLYNELQKDKMAEAYSEIGMKGERRRGKGHDGLYQGLSTATKDTYDALHMQALPPRGGGGSGGGGTGGGGSGMHKRSHTGERPFQCNQCGASFTQKGNLLRHIKLHTGEKPFKCHLCNTASAEARHIKAEMGGKPIPNPLLGLDST
[3]
  % reduction in CAR expression: 88%
  Effect of lenalidomide: Yes
  CAR Expression: Yes

B3: 766 (protein)
chain: MALPVTALLLPLALLLHAARPRSSLALSLTADQMVSALLDAEPPILYSEYDPTRPFSEASMMGLLTNLADRELVHMINWAKRVPGFVDLALHDQVHLLECAWMEILMIGLVWRSMEHPGKLLFAPNLLLDRNQGKCVEGGVEIFDMLLATSSRFRMMNLQGEEFVCLKSIILLNSGVYTFLSSTLKSLEEKDHIHRVLDKITDTLIHLMAKAGLTLQQQHQRLAQLLLILSHIRHMSSKRMEHLYSMKCKNVVPLSDLLLEMLDAHRLGTGAEDPRPSRKRRSLGDVGEIVMTQSPATLSLSPGERATLSCRASQDISKYLNWYQQKPGQAPRLLIYHTSRLHSGIPARFSGSGSGTDYTLTISSLQPEDFAVYFCQQGNTLPYTFGQGTKLEIKGGGGSGGGGSGGGGSQVQLQESGPGLVKPSETLSLTCTVSGVSLPDYGVSWIRQPPGKGLEWIGVIWGSETTYYQSSLKSRVTISKDNSKNQVSLKLSSVTAADTAVYYCAKHYYYGGSYAMDYWGQGTLVTVSSTTTPAPRPPTPAPTIASQPLSLRPEACRPAAGGAVHTRGLDFACDIYIWAPLAGTCGVLLLSLVITLYCKRGRKKLLYIFKQPFMRPVQTTQEEDGCSCRFPEEEEGGCELRVKFSRSADAPAYQQGQNQLYNELNLGRREEYDVLDKRRGRDPEMGGKPRRKNPQEGLYNELQKDKMAEAYSEIGMKGERRRGKGHDGLYQGLSTATKDTYDALHMQALPPRGGGGSGGGGTGGGGSGMHKRSHTGERPFQCNQCGASFTQKGNLLRHIKLHTGEKPFKCHLCNTASAEARHIKAEMGGKPIPNPLLGLDST
[3]
  % reduction in CAR expression: 92%
  Effect of lenalidomide: Yes
  CAR Expression: Yes
  Effect of bazedoxifene: Yes

B4: 767 (protein)
chain: MALPVTALLLPLALLLHAARPRSSLALSLTADQMVSALLDAEPPILYSEYDPTRPFSEASMMGLLTNLADRELVHMINWAKRVPGFVDLALHDQVHLLECAWMEILMIGLVWRSMEHPGKLLFAPNLLLDRNQGKCVEGGVEIFDMLLATSSRFRMMNLQGEEFVCLKSIILLNSGVYTFLSSTLKSLEEKDHIHRVLDKITDTLIHLMAKAGLTLQQQHQRLAQLLLILSHIRHMSSKRMEHLYSMKCKNVVPLSDLLLEMLDAHRLGTGAEDPRPSRKRRSLGDVGEIVMTQSPATLSLSPGERATLSCRASQDISKYLNWYQQKPGQAPRLLIYHTSRLHSGIPARFSGSGSGTDYTLTISSLQPEDFAVYFCQQGNTLPYTFGQGTKLEIKGGGGSGGGGSGGGGSQVQLQESGPGLVKPSETLSLTCTVSGVSLPDYGVSWIRQPPGKGLEWIGVIWGSETTYYQSSLKSRVTISKDNSKNQVSLKLSSVTAADTAVYYCAKHYYYGGSYAMDYWGQGTLVTVSSTTTPAPRPPTPAPTIASQPLSLRPEACRPAAGGAVHTRGLDFACDIYIWAPLAGTCGVLLLSLVITLYCKRGRKKLLYIFKQPFMRPVQTTQEEDGCSCRFPEEEEGGCELRVKFSRSADAPAYQQGQNQLYNELNLGRREEYDVLDKRRGRDPEMGGKPRRKNPQEGLYNELQKDKMAEAYSEIGMKGERRRGKGHDGLYQGLSTATKDTYDALHMQALPPRGGGGSGGGGTGGGGSGMHKRSHTGERPFQCNQCGASFTQKGNLLRHIKLHTGEKPFKCHLCNTASAEARHIKAEMG
[3]
  % reduction in CAR expression: 95%
  Effect of lenalidomide: Yes
  CAR Expression: Yes
  Effect of bazedoxifene: Yes
